# In PubChem BioAssay (NCI):
#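 These data come from cells grown in 96-well plates and exposed to compound for 48 hours at five concentrations. TGI: concentration producing complete growth inhibition.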
# Columns and labels:
# Assay in all cases: growth of human tumour cells (NCI), 48 h
# [1] = tested on: UO-31 renal
# [2] = tested on: SNB-75 CNS
# [3] = tested on: LOX IMVI melanoma
# [4] = tested on: COLO 205 colon
# [5] = tested on: SK-OV-3 ovarian
# [6] = tested on: SK-MEL-28 melanoma
# [7] = tested on: EKVX NSCLC
# [8] = tested on: TK-10 renal
# [9] = tested on: OVCAR-4 ovarian
# [10] = tested on: HT29 colon
# [11] = tested on: SNB-19 CNS
# [12] = tested on: MOLT-4 leukemia
# [13] = tested on: UACC-257 melanoma
# [14] = tested on: MDA-MB-231 breast
# [15] = tested on: DU-145 prostate
# [16] = tested on: PC-3 prostate
# [17] = tested on: OVCAR-8 ovarian
# [18] = tested on: IGROV1 ovarian
# [19] = tested on: OVCAR-5 ovarian
# [20] = tested on: HOP-62 NSCLC
# [21] = tested on: HCT-15 colon
# [22] = tested on: OVCAR-3 ovarian
# [23] = tested on: M14 melanoma
# [24] = tested on: BT-549 breast
# [25] = tested on: UACC-62 melanoma
# [26] = tested on: CAKI-1 renal
# [27] = tested on: SW-620 colon
# [28] = tested on: SF-539 CNS
# [29] = tested on: HOP-92 NSCLC
# [30] = tested on: A549 NSCLC
# [31] = tested on: HL-60(TB) leukemia
# [32] = tested on: HCC-2998 colon
# [33] = tested on: KM12 colon
# [34] = tested on: SK-MEL-5 melanoma
# [35] = tested on: SN12C renal
# [36] = tested on: NCI/ADR-RES ovarian
# [37] = tested on: MCF7 breast
# [38] = tested on: NCI-H226 lung
# [39] = tested on: MDA-N
# [40] = tested on: NCI-H23 lung
# [41] = tested on: 786-0 renal
# [42] = tested on: SF-295 CNS
# [43] = tested on: ACHN renal
# [44] = tested on: T-47D breast
# [45] = tested on: NCI-H460 lung
# [46] = tested on: MDA-MB-435
# [47] = tested on: SK-MEL-2 melanoma
# [48] = tested on: HCT-116 colon
# [49] = tested on: U251 CNS
# [50] = tested on: CCRF-CEM leukemia
# [51] = tested on: NCI-H522 lung
# [52] = tested on: RXF 393 renal
# [53] = tested on: SF-268 CNS
# [54] = tested on: A498 renal
# [55] = tested on: HS 578T breast
# [56] = tested on: MALME-3M melanoma
# [57] = tested on: K-562 leukemia
# [58] = tested on: RPMI-8226 leukemia
# [59] = tested on: SR leukemia
compound,measurement,setting,value
CCOC(=O)Cc1csc2[n+]1C(=O)/C(=C/c1cccc(OC)c1O)S2,TGI,[1],> 100 µM
same,TGI,[2],> 100 µM
same,TGI,[3],> 100 µM
same,TGI,[4],> 100 µM
same,TGI,[5],> 100 µM
same,TGI,[6],> 100 µM
same,TGI,[7],> 100 µM
same,TGI,[8],> 100 µM
same,TGI,[9],> 100 µM
same,TGI,[10],> 100 µM
same,TGI,[11],> 100 µM
same,TGI,[12],> 100 µM
same,TGI,[13],> 100 µM
same,TGI,[14],> 100 µM
same,TGI,[15],> 100 µM
same,TGI,[16],> 100 µM
same,TGI,[17],> 100 µM
same,TGI,[18],> 100 µM
same,TGI,[19],> 100 µM
same,TGI,[20],> 100 µM
same,TGI,[21],> 100 µM
same,TGI,[22],> 100 µM
same,TGI,[23],> 100 µM
same,TGI,[24],48.9 µM
same,TGI,[25],> 100 µM
same,TGI,[26],> 100 µM
same,TGI,[27],> 100 µM
same,TGI,[28],> 100 µM
same,TGI,[29],> 100 µM
same,TGI,[30],> 100 µM
same,TGI,[31],> 100 µM
same,TGI,[32],> 100 µM
same,TGI,[33],> 100 µM
same,TGI,[34],> 100 µM
same,TGI,[35],> 100 µM
same,TGI,[36],> 100 µM
same,TGI,[37],> 100 µM
same,TGI,[38],> 100 µM
same,TGI,[39],> 100 µM
same,TGI,[40],> 100 µM
same,TGI,[41],> 100 µM
same,TGI,[42],> 100 µM
same,TGI,[43],> 100 µM
same,TGI,[44],> 100 µM
same,TGI,[45],> 100 µM
same,TGI,[46],50.5 µM
same,TGI,[47],> 100 µM
same,TGI,[48],> 100 µM
same,TGI,[49],> 100 µM
COc1cc(C)cc2c1c(=O)c1ccccc1n2C,TGI,[2],99.4 µM
same,TGI,[3],53.6 µM
same,TGI,[50],68.5 µM
same,TGI,[51],> 100 µM
same,TGI,[52],73.8 µM
same,TGI,[4],79.1 µM
same,TGI,[5],> 100 µM
same,TGI,[6],> 100 µM
same,TGI,[53],> 100 µM
same,TGI,[7],> 100 µM
same,TGI,[8],> 100 µM
same,TGI,[9],> 100 µM
same,TGI,[10],> 100 µM
same,TGI,[11],> 100 µM
same,TGI,[12],> 100 µM
same,TGI,[13],> 100 µM
same,TGI,[14],> 100 µM
same,TGI,[15],> 100 µM
same,TGI,[54],89.2 µM
same,TGI,[16],> 100 µM
same,TGI,[17],> 100 µM
same,TGI,[18],> 100 µM
same,TGI,[19],> 100 µM
same,TGI,[20],> 100 µM
same,TGI,[21],> 100 µM
same,TGI,[22],> 100 µM
same,TGI,[23],> 100 µM
same,TGI,[24],> 100 µM
same,TGI,[25],62.5 µM
same,TGI,[26],> 100 µM
same,TGI,[55],78.9 µM
same,TGI,[27],> 100 µM
same,TGI,[28],38.4 µM
same,TGI,[29],91.8 µM
same,TGI,[30],> 100 µM
same,TGI,[56],> 100 µM
same,TGI,[31],83.3 µM
same,TGI,[32],> 100 µM
same,TGI,[33],> 100 µM
same,TGI,[34],51.3 µM
same,TGI,[35],> 100 µM
same,TGI,[36],> 100 µM
same,TGI,[37],> 100 µM
same,TGI,[38],81.5 µM
same,TGI,[39],> 100 µM
same,TGI,[40],> 100 µM
same,TGI,[41],> 100 µM
same,TGI,[42],45.3 µM
same,TGI,[57],39.4 µM
same,TGI,[43],> 100 µM
same,TGI,[45],> 100 µM
same,TGI,[46],> 100 µM
same,TGI,[47],49.9 µM
same,TGI,[58],66 µM
same,TGI,[59],78.7 µM
same,TGI,[48],76.3 µM
same,TGI,[49],96.1 µM
COc1cc(C=C2C(C)=NN(c3cccc(Cl)c3)C23C(Cl)C(=O)N3c2nc3ccccc3s2)ccc1O (stereo unspecified),TGI,[1],55 µM
same,TGI,[3],40.2 µM
same,TGI,[50],38.8 µM
same,TGI,[51],12.5 µM
same,TGI,[52],30.3 µM
same,TGI,[5],59.5 µM
same,TGI,[6],> 100 µM
same,TGI,[53],16 µM
same,TGI,[7],> 100 µM
same,TGI,[8],> 100 µM
same,TGI,[9],> 100 µM
same,TGI,[10],26.7 µM
same,TGI,[12],21.1 µM
same,TGI,[13],73.1 µM
same,TGI,[14],26.7 µM
same,TGI,[15],48.7 µM
same,TGI,[54],35.2 µM
same,TGI,[16],30.4 µM
same,TGI,[17],41.5 µM
same,TGI,[18],48.4 µM
same,TGI,[19],50.9 µM
same,TGI,[20],69.1 µM
same,TGI,[21],52.2 µM
same,TGI,[22],72.2 µM
same,TGI,[23],41.9 µM
same,TGI,[26],71.5 µM
same,TGI,[55],43 µM
same,TGI,[27],26 µM
same,TGI,[28],> 100 µM
same,TGI,[29],26.1 µM
same,TGI,[31],36 µM
same,TGI,[32],9.16 µM
same,TGI,[33],30.1 µM
same,TGI,[34],36.9 µM
same,TGI,[36],> 100 µM
same,TGI,[37],> 100 µM
same,TGI,[38],63.6 µM
same,TGI,[39],74.7 µM
same,TGI,[40],57.4 µM
same,TGI,[41],43.7 µM
same,TGI,[42],> 100 µM
same,TGI,[57],25.2 µM
same,TGI,[43],39.1 µM
same,TGI,[44],> 100 µM
same,TGI,[45],66.1 µM
same,TGI,[46],35.1 µM
same,TGI,[47],36.3 µM
same,TGI,[58],30.5 µM
same,TGI,[59],17.2 µM
same,TGI,[48],45 µM
same,TGI,[49],35 µM
O=[N+]([O-])c1ccc(/C=N/Nc2nnc3c4ccccc4c4ncccc4c3n2)o1,TGI,[2],> 10 µM
same,TGI,[50],> 10 µM
same,TGI,[52],> 10 µM
same,TGI,[4],> 10 µM
same,TGI,[5],> 10 µM
same,TGI,[6],> 10 µM
same,TGI,[53],> 10 µM
same,TGI,[7],> 10 µM
same,TGI,[8],> 10 µM
same,TGI,[10],> 10 µM
same,TGI,[12],> 10 µM
same,TGI,[13],> 10 µM
same,TGI,[14],> 10 µM
same,TGI,[15],> 10 µM
same,TGI,[16],> 10 µM
same,TGI,[17],> 10 µM
same,TGI,[18],> 10 µM
same,TGI,[20],> 10 µM
same,TGI,[21],> 10 µM
same,TGI,[23],> 10 µM
same,TGI,[25],> 10 µM
same,TGI,[26],> 10 µM
same,TGI,[27],> 10 µM
same,TGI,[30],> 10 µM
same,TGI,[56],> 10 µM
same,TGI,[31],> 10 µM
same,TGI,[32],> 10 µM
same,TGI,[33],> 10 µM
same,TGI,[34],> 10 µM
same,TGI,[35],> 10 µM
same,TGI,[37],> 10 µM
same,TGI,[39],> 10 µM
same,TGI,[40],> 10 µM
same,TGI,[41],> 10 µM
same,TGI,[42],> 10 µM
same,TGI,[57],> 10 µM
same,TGI,[44],> 10 µM
same,TGI,[58],> 10 µM
same,TGI,[59],> 10 µM
